Measurements taken from patent US12421207B2 (CMG Pharmaceutical Co., Ltd., priority 2022, dated 2025).
pIC50: −log10 of the molar value.

What was measured:
[1] = test system: HCC827/ER cells; assay: Cell viability assay (CellTiter-Glo 2.0), erlotinib-resistant HCC827/ER cells; assay type: cell-based, human; conditions: Homo sapiens, HCC827ER, Table 4, 72 h drug treatment, combinations of EGFR TKIs and inhibitor of Formula (I), read-out: Relative cell viability
Source text: (§1) To explore c-MET and AXL mechanisms of EGFR TKI resistance, resistant cells of the EGFR TKI hypersensitive EGFR exon 19 mutant NSCLC cell line, HCC827 and PC9 were generated by exposing these cells to increasing concentrations of EGFR TKI for over 3 months.
(§2) Gefitinib-resistant cells were referred to as HCC827/GR. […] Osimertinib-resistant cells were referred to as HCC827/OR.

[2] = test system: HCC827/GR cells; assay: Cell viability assay (CellTiter-Glo 2.0), gefitinib-resistant HCC827/GR cells; assay type: cell-based, human; conditions: Homo sapiens, HCC827; Table 4; 72 h drug treatment, combinations of EGFR TKIs and inhibitor of Formula (I); read-out: Relative cell viability; IC50 HCC827GR
Method in brief: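 Gefitinib-resistant HCC827 cells, derived by over 3 months' escalating EGFR TKI exposure, seeded at 1,000 cells/well. Treated 72 h with a 10-point dose range from 1 nM to 10,000 nM. Viability read by CellTiter-Glo 2.0 luminescence.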

[3] = test system: PC9/ER cells; assay: Cell viability assay (CellTiter-Glo 2.0), erlotinib-resistant PC9/ER cells; assay type: cell-based; conditions: Homo sapiens, PC-9/ER; Table 4; 72 h drug treatment, combinations of EGFR TKIs and inhibitor of Formula (I); read-out: Relative cell viability; IC50 PC9ER
Source text: as §1, §2

[4] = test system: HCC827/OR cells; assay: Cell viability assay (CellTiter-Glo 2.0), osimertinib-resistant HCC827/OR cells; assay type: cell-based, human; conditions: Homo sapiens, HCC827; Table 4; 72 h drug treatment, combinations of EGFR TKIs and inhibitor of Formula (I); read-out: Relative cell viability; IC50 HCC827OR
Source text: as §1, §2

| Structure (SMILES) | pIC50 [1] | pIC50 [2] | pIC50 [3] | pIC50 [4] |
| --- | --- | --- | --- | --- |
| C=CCn1cc(C(=O)Nc2ccc(Oc3ccnc(N)c3C#CC(C)(C)N3CCN(C)CC3)c(F)c2)c(=O)n(CC=C)c1=O [Example 68, 1,3-diallyl-N-(4-(2-amino-3-(3-methyl-3-(4-methylpiperazin-1-yl)but-1-ynyl)pyridin-4-yloxy)-3-fluorophenyl)-2,4-dioxo-1,2,3,4-tetrahydropyrimidine-5-carboxamide] | > 6.00 | > 6.00 | > 5.00 | > 6.00 |
| C=CCn1cc(C(=O)Nc2ccc(Oc3ccnc(N)c3C#CCC3CCN(C)CC3)c(F)c2)c(=O)n(CC=C)c1=O [Example 69, 1,3-diallyl-N-(4-(2-amino-3-(3-(1-methylpiperdin-4-yl)prop-1-ynyl)pyridin-4-yloxy)-3-fluorophenyl)-2,4-dioxo-1,2,3,4-tetrahydropyrimidine-5-carboxamide] | > 6.00 | > 6.00 | > 6.00 | > 6.00 |
| C=CCn1cc(C(=O)Nc2ccc(Oc3ccnc(N)c3C#CC(C)(C)N3CCOCC3)c(F)c2)c(=O)n(CC=C)c1=O [Example 70, 1,3-diallyl-N-(4-(2-amino-3-(3-methyl-3-morpholinobut-1-ynyl)pyridin-4-yloxy)-3-fluorophenyl)-2,4-dioxo-1,2,3,4-tetrahydropyrimidine-5-carboxamide] | > 6.00 | > 6.00 | > 5.00 | > 6.00 |
| C=CCn1cc(C(=O)Nc2ccc(Oc3ccnc(N)c3C#CCC3CCNCC3)c(F)c2)c(=O)n(CC=C)c1=O [Example 71, 1,3-dialyl-N-(4-(2-amino-3-(3-(piperidin-4-yl)prop-1-ynyl)pyridin-4-yloxy)-3-fluorophenyl)-2,4-dioxo-1,2,3,4-tetrahydropyrimidine-5-carboxamide] | > 6.00 | > 6.00 | > 6.00 | > 6.00 |

Second part, the molecule after the results:

| pIC50 [1] | pIC50 [2] | pIC50 [3] | pIC50 [4] | Structure (SMILES) |
| --- | --- | --- | --- | --- |
| > 8.00 | > 7.00 | > 6.00 | > 6.00 | Nc1nccc(Oc2ccc(NC(=O)c3cn(C4CCOCC4)c(=O)n(-c4ccc(F)cc4)c3=O)cc2F)c1C#CCN1CCOCC1 [Example 56, N-(4-(2-amino-3-(3-morpholinoprop-1-ynyl)pyridin-4-yloxy)-3-fluorophenyl)-3-(4-fluorophenyl)-2,4-dioxo-1-(tetrahydro-2H-pyran-4-yl)-1,2,3,4-tetrahydropyrimidine-5-carboxamide] |
| > 7.00 | > 7.00 | > 6.00 | > 6.00 | CN1CCN(C(C)(C)C#Cc2c(Oc3ccc(NC(=O)c4cn(C5CCOCC5)c(=O)n(-c5ccc(F)cc5)c4=O)cc3F)ccnc2N)CC1 [Example 57, N-(4-(2-amino-3-(3-methyl-3-(4-methylpiperazin-1-yl)but-1-ynyl)pyridin-4-yloxy)-3-fluorophenyl)-3-(4-fluorophenyl)-2,4-dioxo-1-(tetrahydro-2H-pyran-4-yl)-1,2,3,4-tetrahydropyrimidine-5-carboxamide] |
| > 6.00 | > 6.00 | > 6.00 | > 6.00 | CC(C)(C#Cc1c(Oc2ccc(NC(=O)c3cn(C4CCOCC4)c(=O)n(-c4ccc(F)cc4)c3=O)cc2F)ccnc1N)N1CCNCC1 [Example 58, N-(4-(2-amino-3-(3-methyl-3-(piperazin-1-yl)but-1-ynyl)pyridin-4-yloxy)-3-fluorophenyl)-3-(4-fluorophenyl)-2,4-dioxo-1-(tetrahydro-2H-pyran-4-yl)-1,2,3,4-tetrahydropyrimidine-5-carboxamide] |
| > 6.00 | > 6.00 | > 6.00 | > 6.00 | Nc1nccc(Oc2ccc(NC(=O)c3cn(C4CCOCC4)c(=O)n(-c4ccc(F)cc4)c3=O)cc2F)c1C#CCC1CCNCC1 [Example 59, N-(4-(2-amino-3-(3-(piperidin-4-yl)prop-1-ynyl)pyridin-4-yloxy)-3-fluorophenyl)-3-(4-fluorophenyl)-2,4-dioxo-1-(tetrahydro-2H-pyran-4-yl)-1,2,3,4-tetrahydropyrimidine-5-carboxamide] |
| > 7.00 | > 7.00 | > 7.00 | > 7.00 | CN1CCC(CC#Cc2c(Oc3ccc(NC(=O)c4cn(C5CCOCC5)c(=O)n(-c5ccc(F)cc5)c4=O)cc3F)ccnc2N)CC1 [Example 60, N-(4-(2-amino-3-(3-(1-methylpiperidin-4-yl)prop-1-ynyl)pyridin-4-yloxy)-3-fluorophenyl)-3-(4-fluorophenyl)-2,4-dioxo-1-(tetrahydro-2H-pyran-4-yl)-1,2,3,4-tetrahydropyrimidine-5-carboxamide] |
| > 7.00 | > 7.00 | > 6.00 | > 6.00 | C=CCn1cc(C(=O)Nc2ccc(Oc3ccnc(N)c3C#CCN3CCOCC3)c(F)c2)c(=O)n(CC=C)c1=O [Example 67, 1,3-diallyl-N-(4-(2-amino-3-(3-morpholinoprop-1-ynyl)pyridin-4-yloxy)-3-fluorophenyl)-2,4-dioxo-1,2,3,4-tetrahydropyrimidine-5-carboxamide] |
